{"source": "the supplement of paper PMC10307832", "assay_in_all_cases": "relative viability (nuclei count vs DMSO), 5 days (fraction); higher = more cells survive", "key": {"[1]": {"compound": "CC1=C(C=CC(=C1)[N+](=O)[O-])NS(=O)(=O)C2=C(C=CC(=C2)Cl)Cl [FH535] + CC(C)C[C@H](NC(=O)[C@H](Cc1ccccc1)NC(=O)c1cnccn1)B(O)O [Bortezomib] (partner 0.002 µM)", "method_in_brief": "(§1)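 Dosing by pin tool came one day after lung cancer cell lines were seeded in 1536-well plates, using either one drug or a fixed anchor-drug dose plus five library-drug doses (not always all listed) in √10 steps. After 5 days, nuclei were counted on 4× images. Relative viability is treated-well nuclei count divided by vehicle-well nuclei count, and values are medians of duplicate plates.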"}, "[2]": {"compound": "CC1=C(C=CC(=C1)[N+](=O)[O-])NS(=O)(=O)C2=C(C=CC(=C2)Cl)Cl [FH535] + CCNC(=O)c1noc(-c2cc(C(C)C)c(O)cc2O)c1-c1ccc(CN2CCOCC2)cc1 [Luminespib] (partner 0.01 µM)", "method_in_brief": "as §1"}, "[3]": {"compound": "CC1=C(C=CC(=C1)[N+](=O)[O-])NS(=O)(=O)C2=C(C=CC(=C2)Cl)Cl [FH535] + COc1cc2c(Oc3ccc(NC(=O)C4(C(=O)Nc5ccc(F)cc5)CC4)cc3F)ccnc2cc1OCCCN1CCOCC1 [Foretinib] (partner 0.25 µM)", "method_in_brief": "as §1"}, "[4]": {"compound": "CC1=C(C=CC(=C1)[N+](=O)[O-])NS(=O)(=O)C2=C(C=CC(=C2)Cl)Cl [FH535] + Cc1cc(Nc2cc(N3CCN(C)CC3)nc(Sc3ccc(NC(=O)C4CC4)cc3)n2)n[nH]1 [Tozasertib] (partner 0.1 µM)", "method_in_brief": "as §1"}, "[5]": {"compound": "CC1=C(C=CC(=C1)[N+](=O)[O-])NS(=O)(=O)C2=C(C=CC(=C2)Cl)Cl [FH535] + O=C(CCCCCCC(=O)Nc1ccccc1)NO [Vorinostat] (partner 1 µM)", "method_in_brief": "as §1"}}}
{"cell line": "201T", "values": [{"measurement": "relative viability", "setting": "[1]; first compound 0.04 µM", "result": 1.02}, {"measurement": "relative viability", "setting": "[1]; first compound 0.1265 µM", "result": 1.05}, {"measurement": "relative viability", "setting": "[1]; first compound 0.4 µM", "result": 1.1}, {"measurement": "relative viability", "setting": "[1]; first compound 1.265 µM", "result": 1.03}, {"measurement": "relative viability", "setting": "[2]; first compound 0.04 µM", "result": 1.04}, {"measurement": "relative viability", "setting": "[2]; first compound 0.1265 µM", "result": 1.03}, {"measurement": "relative viability", "setting": "[2]; first compound 0.4 µM", "result": 1.03}, {"measurement": "relative viability", "setting": "[2]; first compound 1.265 µM", "result": 0.735}, {"measurement": "relative viability", "setting": "[3]; first compound 0.04 µM", "result": 0.987}, {"measurement": "relative viability", "setting": "[3]; first compound 0.1265 µM", "result": 1.15}, {"measurement": "relative viability", "setting": "[3]; first compound 0.4 µM", "result": 1.11}, {"measurement": "relative viability", "setting": "[3]; first compound 1.265 µM", "result": 1.02}, {"measurement": "relative viability", "setting": "[4]; first compound 0.04 µM", "result": 0.919}, {"measurement": "relative viability", "setting": "[4]; first compound 0.1265 µM", "result": 0.953}, {"measurement": "relative viability", "setting": "[4]; first compound 0.4 µM", "result": 0.976}, {"measurement": "relative viability", "setting": "[4]; first compound 1.265 µM", "result": 0.743}, {"measurement": "relative viability", "setting": "[5]; first compound 0.04 µM", "result": 0.905}, {"measurement": "relative viability", "setting": "[5]; first compound 0.1265 µM", "result": 0.948}, {"measurement": "relative viability", "setting": "[5]; first compound 0.4 µM", "result": 0.855}, {"measurement": "relative viability", "setting": "[5]; first compound 1.265 µM", "result": 0.929}]}
{"cell line": "A-427", "values": [{"measurement": "relative viability", "setting": "[1]; first compound 0.04 µM", "result": 0.967}, {"measurement": "relative viability", "setting": "[1]; first compound 0.1265 µM", "result": 0.982}, {"measurement": "relative viability", "setting": "[1]; first compound 0.4 µM", "result": 0.829}, {"measurement": "relative viability", "setting": "[1]; first compound 1.265 µM", "result": 0.908}, {"measurement": "relative viability", "setting": "[2]; first compound 0.04 µM", "result": 0.778}, {"measurement": "relative viability", "setting": "[2]; first compound 0.1265 µM", "result": 1.19}, {"measurement": "relative viability", "setting": "[2]; first compound 0.4 µM", "result": 0.885}, {"measurement": "relative viability", "setting": "[2]; first compound 1.265 µM", "result": 0.703}, {"measurement": "relative viability", "setting": "[3]; first compound 0.04 µM", "result": 1.06}, {"measurement": "relative viability", "setting": "[3]; first compound 0.1265 µM", "result": 0.965}, {"measurement": "relative viability", "setting": "[3]; first compound 0.4 µM", "result": 1.04}, {"measurement": "relative viability", "setting": "[3]; first compound 1.265 µM", "result": 0.977}, {"measurement": "relative viability", "setting": "[4]; first compound 0.04 µM", "result": 0.175}, {"measurement": "relative viability", "setting": "[4]; first compound 0.1265 µM", "result": 0.205}, {"measurement": "relative viability", "setting": "[4]; first compound 0.4 µM", "result": 0.243}, {"measurement": "relative viability", "setting": "[4]; first compound 1.265 µM", "result": 0.159}, {"measurement": "relative viability", "setting": "[5]; first compound 0.04 µM", "result": 0.862}, {"measurement": "relative viability", "setting": "[5]; first compound 0.1265 µM", "result": 0.846}, {"measurement": "relative viability", "setting": "[5]; first compound 0.4 µM", "result": 0.845}, {"measurement": "relative viability", "setting": "[5]; first compound 1.265 µM", "result": 0.725}]}
{"cell line": "ABC-1", "values": [{"measurement": "relative viability", "setting": "[1]; first compound 0.04 µM", "result": 0.331}, {"measurement": "relative viability", "setting": "[1]; first compound 0.1265 µM", "result": 0.26}, {"measurement": "relative viability", "setting": "[1]; first compound 0.4 µM", "result": 0.33}, {"measurement": "relative viability", "setting": "[1]; first compound 1.265 µM", "result": 0.34}, {"measurement": "relative viability", "setting": "[2]; first compound 0.04 µM", "result": 0.543}, {"measurement": "relative viability", "setting": "[2]; first compound 0.1265 µM", "result": 0.861}, {"measurement": "relative viability", "setting": "[2]; first compound 0.4 µM", "result": 0.627}, {"measurement": "relative viability", "setting": "[2]; first compound 1.265 µM", "result": 0.337}, {"measurement": "relative viability", "setting": "[3]; first compound 0.04 µM", "result": 1.04}, {"measurement": "relative viability", "setting": "[3]; first compound 0.1265 µM", "result": 0.849}, {"measurement": "relative viability", "setting": "[3]; first compound 0.4 µM", "result": 0.969}, {"measurement": "relative viability", "setting": "[3]; first compound 1.265 µM", "result": 0.907}, {"measurement": "relative viability", "setting": "[4]; first compound 0.04 µM", "result": 0.181}, {"measurement": "relative viability", "setting": "[4]; first compound 0.1265 µM", "result": 0.216}, {"measurement": "relative viability", "setting": "[4]; first compound 0.4 µM", "result": 0.218}, {"measurement": "relative viability", "setting": "[4]; first compound 1.265 µM", "result": 0.217}, {"measurement": "relative viability", "setting": "[5]; first compound 0.04 µM", "result": 0.944}, {"measurement": "relative viability", "setting": "[5]; first compound 0.1265 µM", "result": 1}, {"measurement": "relative viability", "setting": "[5]; first compound 0.4 µM", "result": 0.934}, {"measurement": "relative viability", "setting": "[5]; first compound 1.265 µM", "result": 0.607}]}
{"cell line": "BEN", "values": [{"measurement": "relative viability", "setting": "[1]; first compound 0.04 µM", "result": 0.755}, {"measurement": "relative viability", "setting": "[1]; first compound 0.1265 µM", "result": 0.615}, {"measurement": "relative viability", "setting": "[1]; first compound 0.4 µM", "result": 0.647}, {"measurement": "relative viability", "setting": "[1]; first compound 1.265 µM", "result": 0.475}, {"measurement": "relative viability", "setting": "[2]; first compound 0.04 µM", "result": 0.211}, {"measurement": "relative viability", "setting": "[2]; first compound 0.1265 µM", "result": 0.466}, {"measurement": "relative viability", "setting": "[2]; first compound 0.4 µM", "result": 0.285}, {"measurement": "relative viability", "setting": "[2]; first compound 1.265 µM", "result": 0.119}, {"measurement": "relative viability", "setting": "[3]; first compound 0.04 µM", "result": 0.595}, {"measurement": "relative viability", "setting": "[3]; first compound 0.1265 µM", "result": 0.932}, {"measurement": "relative viability", "setting": "[3]; first compound 0.4 µM", "result": 0.723}, {"measurement": "relative viability", "setting": "[3]; first compound 1.265 µM", "result": 0.328}, {"measurement": "relative viability", "setting": "[4]; first compound 0.04 µM", "result": 0.547}, {"measurement": "relative viability", "setting": "[4]; first compound 0.1265 µM", "result": 0.483}, {"measurement": "relative viability", "setting": "[4]; first compound 0.4 µM", "result": 0.483}, {"measurement": "relative viability", "setting": "[4]; first compound 1.265 µM", "result": 0.487}, {"measurement": "relative viability", "setting": "[5]; first compound 0.04 µM", "result": 0.51}, {"measurement": "relative viability", "setting": "[5]; first compound 0.1265 µM", "result": 0.583}, {"measurement": "relative viability", "setting": "[5]; first compound 0.4 µM", "result": 0.548}, {"measurement": "relative viability", "setting": "[5]; first compound 1.265 µM", "result": 0.525}]}
